Data from publication PMC5218480 (PLoS ONE, 2017).

System: MV-4-11 cells
Experiment: Gene expression microarray analysis (Affymetrix PrimeView) and GSEA
Type: cell-based, human
Design: RFU PODN (11730768_x_at) / Fold change /veh PODN (11730768_x_at) / RFU LINC00158 (11744669_a_at) / Fold change /veh LINC00158 (11744669_a_at) / RFU DUSP10 (11751237_a_at) / Fold change /veh DUSP10 (11751237_a_at) / RFU ID3 (11757404_x_at) / Fold change /veh ID3 (11757404_x_at) / RFU PLEKHG5 (11737974_s_at) / Fold change /veh PLEKHG5 (11737974_s_at) / RFU LRRC4B (11730491_at) / Fold change /veh LRRC4B (11730491_at) / RFU GIMAP4 (11747438_a_at) / Fold change /veh GIMAP4 (11747438_a_at) / RFU KRT8 (11758183_x_at) / Fold change /veh KRT8 (11758183_x_at) / RFU CNN1 (11734310_a_at) / Fold change /veh CNN1 (11734310_a_at) / RFU VPS37D (11726825_at) / Fold change /veh VPS37D (11726825_at) / RFU C10orf10 (11716522_x_at) / Fold change /veh C10orf10 (11716522_x_at) / RFU KIR2DL2 /// KIR2DL4 /// KIR2DL5A /// KIR2DL5B /// KIR2DS1 /// KIR2DS2 /// KIR2DS3 /// KIR2DS4 /// KIR3DL3 /// KIR3DL3 /// KIR3DS1 (11738374_at) / Fold change /veh KIR2DL2 /// KIR2DL4 /// KIR2DL5A /// KIR2DL5B /// KIR2DS1 /// KIR2DS2 /// KIR2DS3 /// KIR2DS4 /// KIR3DL3 /// KIR3DL3 /// KIR3DS1 (11738374_at) / RFU C1QL1 (11718748_at) / Fold change /veh C1QL1 (11718748_at) / RFU TMPRSS4 (11747572_a_at) / Fold change /veh TMPRSS4 (11747572_a_at) / RFU HAMP (11756126_x_at) / Fold change /veh HAMP (11756126_x_at) / RFU RNFT2 (11725882_a_at) / Fold change /veh RNFT2 (11725882_a_at) / RFU NR4A2 (11747474_a_at) / Fold change /veh NR4A2 (11747474_a_at) / RFU ABCC12 (11746883_a_at) / Fold change /veh ABCC12 (11746883_a_at) / RFU TMEM136 (11760407_x_at) / Fold change /veh TMEM136 (11760407_x_at) / RFU CLDN22 /// WWC2 (11732394_at) / Fold change /veh CLDN22 /// WWC2 (11732394_at) / RFU HLA-DPB1 (11760878_x_at) / Fold change /veh HLA-DPB1 (11760878_x_at) / RFU SPINT1 (11716480_a_at) / Fold change /veh SPINT1 (11716480_a_at) / RFU GAP43 (11754022_s_at) / Fold change /veh GAP43 (11754022_s_at) / RFU A4GNT (11735810_at) / Fold change /veh A4GNT (11735810_at) / RFU PRB3 (11715151_x_at) / Fold change /veh PRB3 (11715151_x_at) / RFU TUBB4B (11761932_at) / Fold change /veh TUBB4B (11761932_at) / RFU CAPN14 (11732068_a_at) / Fold change /veh CAPN14 (11732068_a_at) / RFU TMCC2 (11721928_a_at) / Fold change /veh TMCC2 (11721928_a_at) / RFU IRGQ (11745062_a_at) / Fold change /veh IRGQ (11745062_a_at) / RFU FAM174B (11720279_a_at) / Fold change /veh FAM174B (11720279_a_at) / RFU TMPRSS4 (11748680_a_at) / Fold change /veh TMPRSS4 (11748680_a_at) / RFU FAM212B (11763350_a_at) / Fold change /veh FAM212B (11763350_a_at) / RFU PLEKHG5 (11743358_a_at) / Fold change /veh PLEKHG5 (11743358_a_at) / RFU ZSCAN30 (11745921_a_at) / Fold change /veh ZSCAN30 (11745921_a_at) / RFU CMKLR1 (11741424_a_at) / Fold change /veh CMKLR1 (11741424_a_at) / RFU LOC101060620 /// MAPK8IP1 (11723275_at) / Fold change /veh LOC101060620 /// MAPK8IP1 (11723275_at) / RFU SPTSSB (11747773_x_at) / Fold change /veh SPTSSB (11747773_x_at) / RFU PRSS12 (11739890_at) / Fold change /veh PRSS12 (11739890_at) / RFU BIN1 (11741810_x_at) / Fold change /veh BIN1 (11741810_x_at) / RFU WNT11 (11732464_a_at) / Fold change /veh WNT11 (11732464_a_at) / RFU C10orf10 (11716521_a_at) / Fold change /veh C10orf10 (11716521_a_at) / RFU C5orf56 (11738089_at) / Fold change /veh C5orf56 (11738089_at) / RFU CYB561 (11721691_x_at) / Fold change /veh CYB561 (11721691_x_at) / RFU ANKRD19P (11752326_a_at) / Fold change /veh ANKRD19P (11752326_a_at) / RFU OR2T12 /// OR2T33 /// OR2T8 (11738714_s_at) / Fold change /veh OR2T12 /// OR2T33 /// OR2T8 (11738714_s_at) / RFU VCAN (11748164_a_at) / Fold change /veh VCAN (11748164_a_at) / RFU JSRP1 (11732532_at) / Fold change /veh JSRP1 (11732532_at) / RFU KRTAP10-11 (11738290_x_at) / Fold change /veh KRTAP10-11 (11738290_x_at) / RFU MYO3A (11730013_a_at) / Fold change /veh MYO3A (11730013_a_at) / RFU EBF3 (11725865_a_at) / Fold change /veh EBF3 (11725865_a_at) / RFU CAMK2N1 (11719241_x_at) / Fold change /veh CAMK2N1 (11719241_x_at) / RFU C5orf56 (11738088_a_at) / Fold change /veh C5orf56 (11738088_a_at) / RFU OLFML3 (11715873_a_at) / Fold change /veh OLFML3 (11715873_a_at) / RFU LOC100653217 /// NTM (11731650_a_at) / Fold change /veh LOC100653217 /// NTM (11731650_a_at) / RFU MAPK11 (11762145_a_at) / Fold change /veh MAPK11 (11762145_a_at) / RFU FIZ1 (11724087_x_at) / Fold change /veh FIZ1 (11724087_x_at) / RFU OASL (11726364_x_at) / Fold change /veh OASL (11726364_x_at) / RFU SOX15 (11748057_x_at) / Fold change /veh SOX15 (11748057_x_at) / RFU CD79A (11719716_a_at) / Fold change /veh CD79A (11719716_a_at) / RFU HIST1H1D (11736915_at) / Fold change /veh HIST1H1D (11736915_at) / RFU CASKIN2 (11723855_a_at) / Fold change /veh CASKIN2 (11723855_a_at) / RFU LOC730098 (11760151_x_at) / Fold change /veh LOC730098 (11760151_x_at) / RFU OR4N2 (11742367_at) / Fold change /veh OR4N2 (11742367_at) / RFU PRRT2 (11749266_a_at) / Fold change /veh PRRT2 (11749266_a_at) / RFU SNX32 (11753110_a_at) / Fold change /veh SNX32 (11753110_a_at) / RFU CDHR5 (11726645_a_at) / Fold change /veh CDHR5 (11726645_a_at) / RFU RCAN1 (11760418_a_at) / Fold change /veh RCAN1 (11760418_a_at) / RFU FAM167A (11723789_a_at) / Fold change /veh FAM167A (11723789_a_at) / RFU FAM26E (11764081_at) / Fold change /veh FAM26E (11764081_at) / RFU ISYNA1 (11749810_s_at) / Fold change /veh ISYNA1 (11749810_s_at) / RFU ACY1 (11761880_at) / Fold change /veh ACY1 (11761880_at) / RFU 11764098_at / Fold change /veh 11764098_at / RFU SAMD14 (11745864_x_at) / Fold change /veh SAMD14 (11745864_x_at) / RFU NPB (11741838_a_at) / Fold change /veh NPB (11741838_a_at) / RFU TMPRSS6 (11731388_a_at) / Fold change /veh TMPRSS6 (11731388_a_at) / RFU KRTAP10-2 (11738614_at) / Fold change /veh KRTAP10-2 (11738614_at) / RFU ARHGAP8 /// PRR5-ARHGAP8 (11727945_x_at) / Fold change /veh ARHGAP8 /// PRR5-ARHGAP8 (11727945_x_at) / RFU KRTAP5-7 /// NADSYN1 (11734609_at) / Fold change /veh KRTAP5-7 /// NADSYN1 (11734609_at) / RFU RASL12 (11751679_a_at) / Fold change /veh RASL12 (11751679_a_at) / RFU CDKN2B (11736163_a_at) / Fold change /veh CDKN2B (11736163_a_at) / RFU PRF1 (11729649_at) / Fold change /veh PRF1 (11729649_at) / RFU, ZNF638 /// ZNF638-IT1 / Fold change vs veh, ZNF638 /// ZNF638-IT1 / RFU, PANK3 / Fold change vs veh, PANK3 / RFU, SH3YL1 / Fold change vs veh, SH3YL1 / RFU, ZEB2 / Fold change vs veh, ZEB2 / RFU, NRIP1 / Fold change vs veh, NRIP1 / RFU, PTTG1IP / Fold change vs veh, PTTG1IP / RFU, CAPN2 / Fold change vs veh, CAPN2 / RFU, MED14 / Fold change vs veh, MED14 / RFU, SNORA58 / Fold change vs veh, SNORA58 / RFU, C1orf63 / Fold change vs veh, C1orf63 / RFU, LRRFIP1 / Fold change vs veh, LRRFIP1 / RFU, NDUFAF7 / Fold change vs veh, NDUFAF7 / RFU, SLC12A2 / Fold change vs veh, SLC12A2 / RFU, IBTK / Fold change vs veh, IBTK / RFU, ESF1 / Fold change vs veh, ESF1 / Fold change vs veh, TMEM50B / RFU, TAOK1 / Fold change vs veh, TAOK1 / RFU, ACBD3 / Fold change vs veh, ACBD3 / RFU, TMA16 / Fold change vs veh, TMA16 / RFU, RWDD3 / Fold change vs veh, RWDD3 / RFU, BCAT1 / Fold change vs veh, BCAT1 / RFU, EDEM3 / Fold change vs veh, EDEM3 / RFU, TMEM33 / Fold change vs veh, TMEM33 / RFU, WDR75 / Fold change vs veh, WDR75 / RFU, AHCTF1 / Fold change vs veh, AHCTF1 / RFU, TFRC / Fold change vs veh, TFRC / RFU, ZDHHC17 / Fold change vs veh, ZDHHC17 / RFU, NOM1 / Fold change vs veh, NOM1 / RFU, ARL8B / Fold change vs veh, ARL8B / RFU, ZBTB11 / Fold change vs veh, ZBTB11 / RFU, TAMM41 / Fold change vs veh, TAMM41 / RFU, KIAA1704 /// LOC100996395 / Fold change vs veh, KIAA1704 /// LOC100996395 / RFU, ING1 / Fold change vs veh, ING1 / RFU, TRMT61B / Fold change vs veh, TRMT61B / RFU, FUBP3 / Fold change vs veh, FUBP3 / RFU, TP53 / Fold change vs veh, TP53 / RFU, TNKS2 / Fold change vs veh, TNKS2 / RFU, ZFP14 / Fold change vs veh, ZFP14 / RFU, ACTR2 / Fold change vs veh, ACTR2 / RFU, PPP3R1 / Fold change vs veh, PPP3R1 / RFU, PIK3R1 / Fold change vs veh, PIK3R1 / RFU, HNRNPA1 / Fold change vs veh, HNRNPA1 / RFU, RNF170 / Fold change vs veh, RNF170 / RFU, ZNF28 / Fold change vs veh, ZNF28 / RFU, RNGTT / Fold change vs veh, RNGTT / RFU, OGT / Fold change vs veh, OGT / RFU, BRD1 / Fold change vs veh, BRD1 / RFU, MARS / Fold change vs veh, MARS / RFU, ZNF655 / Fold change vs veh, ZNF655 / RFU, FAHD1 / Fold change vs veh, FAHD1 / RFU, BDP1 / Fold change vs veh, BDP1 / RFU, LRRCC1 / Fold change vs veh, LRRCC1 / RFU, ARID1A / Fold change vs veh, ARID1A / RFU, ZNF146 / Fold change vs veh, ZNF146 / RFU, ZNF330 / Fold change vs veh, ZNF330 / RFU, GPN3 / Fold change vs veh, GPN3 / RFU, C9orf123 / Fold change vs veh, C9orf123 / RFU, N4BP2L2 / Fold change vs veh, N4BP2L2 / RFU, ARFIP1 / Fold change vs veh, ARFIP1 / RFU, FAM179B / Fold change vs veh, FAM179B / RFU, BCL10 / Fold change vs veh, BCL10 / RFU, UHRF1BP1L / Fold change vs veh, UHRF1BP1L / RFU, BET1 / Fold change vs veh, BET1 / RFU, CNOT2 / Fold change vs veh, CNOT2 / RFU, ZNF268 / Fold change vs veh, ZNF268 / Fold change vs veh, ZNF507 / RFU, DGCR2 / Fold change vs veh, DGCR2 / RFU, WDSUB1 / Fold change vs veh, WDSUB1 / Fold change vs veh, HSP90B1 /// MIR3652 / RFU, ADSS / Fold change vs veh, ADSS / RFU, GK / Fold change vs veh, GK / RFU, ZNF148 / Fold change vs veh, ZNF148 / RFU, TAF9 / Fold change vs veh, TAF9 / RFU, SLC1A5 / Fold change vs veh, SLC1A5 / RFU, SLMO2 / Fold change vs veh, SLMO2 / RFU, ABCC4 / Fold change vs veh, ABCC4 / RFU, LOC101060439 /// RAP1B / Fold change vs veh, LOC101060439 /// RAP1B / RFU, RFX7 / Fold change vs veh, RFX7 / RFU, GTPBP10 / Fold change vs veh, GTPBP10 / RFU, CNEP1R1 / Fold change vs veh, CNEP1R1 / RFU, BIVM-ERCC5 /// ERCC5 / Fold change vs veh, BIVM-ERCC5 /// ERCC5 / RFU, ILF3 / Fold change vs veh, ILF3 / RFU 11762660_at / Fold change /veh 11762660_at / RFU VCAN (11757783_s_at) / Fold change /veh VCAN (11757783_s_at) / RFU DDX43 (11728927_at) / Fold change /veh DDX43 (11728927_at) / RFU KRT8 (11758188_x_at) / Fold change /veh KRT8 (11758188_x_at) / RFU NKD1 (11759106_at) / Fold change /veh NKD1 (11759106_at) / RFU SRD5A1 (11742802_a_at) / Fold change /veh SRD5A1 (11742802_a_at) / RFU TPSAB1 /// TPSB2 (11721975_s_at) / Fold change /veh TPSAB1 /// TPSB2 (11721975_s_at) / RFU GSTM3 (11746129_a_at) / Fold change /veh GSTM3 (11746129_a_at) / RFU IL23R (11737362_x_at) / Fold change /veh IL23R (11737362_x_at) / RFU TMEM51 (11727254_a_at) / Fold change /veh TMEM51 (11727254_a_at) / RFU PIWIL2 (11732686_x_at) / Fold change /veh PIWIL2 (11732686_x_at) / RFU ORM1 (11744905_x_at) / Fold change /veh ORM1 (11744905_x_at) / RFU CCDC152 (11743942_at) / Fold change /veh CCDC152 (11743942_at) / RFU ECM1 (11717891_a_at) / Fold change /veh ECM1 (11717891_a_at) / RFU IL23R (11748794_a_at) / Fold change /veh IL23R (11748794_a_at) / RFU TNFAIP8L3 (11732012_x_at) / Fold change /veh TNFAIP8L3 (11732012_x_at) / RFU MBOAT4 (11741988_at) / Fold change /veh MBOAT4 (11741988_at) / RFU 11764193_at / Fold change /veh 11764193_at / RFU TMEM53 (11763286_at) / Fold change /veh TMEM53 (11763286_at) / RFU MAGEB2 (11727129_at) / Fold change /veh MAGEB2 (11727129_at) / RFU TMEM200A (11744735_a_at) / Fold change /veh TMEM200A (11744735_a_at) / RFU CCDC152 (11751479_a_at) / Fold change /veh CCDC152 (11751479_a_at) / RFU FAM211A (11726209_a_at) / Fold change /veh FAM211A (11726209_a_at) / RFU RGS16 (11746705_a_at) / Fold change /veh RGS16 (11746705_a_at) / RFU VCAN (11755009_s_at) / Fold change /veh VCAN (11755009_s_at) / RFU RHOB (11743442_s_at) / Fold change /veh RHOB (11743442_s_at) / RFU RGS16 (11720943_a_at) / Fold change /veh RGS16 (11720943_a_at) / RFU RGS16 (11720944_at) / Fold change /veh RGS16 (11720944_at) / RFU, VPS4B / Fold change vs veh, VPS4B / RFU, CREB1 / Fold change vs veh, CREB1 / RFU, DNAJC13 / Fold change vs veh, DNAJC13 / RFU, GNAQ / Fold change vs veh, GNAQ / RFU, CDK5R1 / Fold change vs veh, CDK5R1 / RFU, ZRANB3 / Fold change vs veh, ZRANB3 / RFU, CUL4A / Fold change vs veh, CUL4A / RFU, CCNY / Fold change vs veh, CCNY / RFU, UFL1 / Fold change vs veh, UFL1 / RFU, COG3 / Fold change vs veh, COG3 / RFU, DIAPH2 / Fold change vs veh, DIAPH2 / RFU, SKA2 / Fold change vs veh, SKA2 / RFU, AFF3 / Fold change vs veh, AFF3 / RFU, LMF1 / Fold change vs veh, LMF1 / RFU, IPO11 / Fold change vs veh, IPO11 / RFU, DFFB / Fold change vs veh, DFFB / RFU, FOXP1 / Fold change vs veh, FOXP1 / RFU, CARD8 / Fold change vs veh, CARD8 / RFU, STRN3 / Fold change vs veh, STRN3 / RFU, ADK / Fold change vs veh, ADK / RFU, RASSF2 / Fold change vs veh, RASSF2 / RFU, WIPF1 / Fold change vs veh, WIPF1 / RFU, LARP1B / Fold change vs veh, LARP1B / RFU, RASA1 / Fold change vs veh, RASA1 / RFU, RB1 / Fold change vs veh, RB1 / RFU, PPFIA1 / Fold change vs veh, PPFIA1 / RFU, MAT2A / Fold change vs veh, MAT2A / RFU, CCT5 / Fold change vs veh, CCT5 / RFU, WDR92 / Fold change vs veh, WDR92 / RFU, CUX1 / Fold change vs veh, CUX1 / RFU, TTC7A / Fold change vs veh, TTC7A / RFU, TMEM135 / Fold change vs veh, TMEM135 / RFU, DEPTOR / Fold change vs veh, DEPTOR / RFU, CPM / Fold change vs veh, CPM / RFU, DNAJB6 / Fold change vs veh, DNAJB6 / RFU, CACNA2D3 / Fold change vs veh, CACNA2D3 / RFU, DTX4 / Fold change vs veh, DTX4 / RFU, TFCP2 / Fold change vs veh, TFCP2 / RFU, GMCL1 /// GMCL1P1 / Fold change vs veh, GMCL1 /// GMCL1P1 / RFU, AEBP2 / Fold change vs veh, AEBP2 / RFU, SNHG1 /// SNORD22 /// SNORD25 /// SNORD26 /// SNORD27 /// SNORD28 /// SNORD29 /// SNORD31 / Fold change vs veh, SNHG1 /// SNORD22 /// SNORD25 /// SNORD26 /// SNORD27 /// SNORD28 /// SNORD29 /// SNORD31 / Fold change (Aza/veh), C12orf56 (ProbeSet 11735607_a_at) / Fold change (ACY-1035/veh), C12orf56 (ProbeSet 11735607_a_at) / Fold change (Aza/veh), FGFR1OP (ProbeSet 11751329_s_at) / Fold change (ACY-1035/veh), FGFR1OP (ProbeSet 11751329_s_at) / Fold change (Aza/veh), VPS36 (ProbeSet 11739960_a_at) / Fold change (ACY-1035/veh), VPS36 (ProbeSet 11739960_a_at) / RFU SYPL1 (11715823_x_at) / Fold change /veh SYPL1 (11715823_x_at) / RFU IGFBP7 (11715501_s_at) / Fold change /veh IGFBP7 (11715501_s_at) / RFU REEP3 (11722064_at) / Fold change /veh REEP3 (11722064_at) / RFU IGLL1 (11728026_x_at) / Fold change /veh IGLL1 (11728026_x_at): dose or concentration left out as unconfirmed
Settings: MV-4-11 cells, 48 hours

With Nc1ccc(-c2cccs2)cc1NC(=O)c1ccc2c(c1)cc(C1CC1)n2CCN1CCOCC1 [ACY-1035] the “RFU ACY1 (11761880_at)” value was 20.30 RFU.
